Laboratory results: patent US4175081A, “5-Substituted thiadiazole ureas” (priority 1977, dated 1979)

Tests used:
[1] = tested on: Crabgrass (CG); assay: Pre-emergence herbicide test; format: in vivo, Digitaria sanquinalis; settings: Digitaria sanguinalis, pre-emergence, 336 h, two weeks after treatment
Outline: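 Crabgrass (Digitaria sanquinalis) was surface seeded in 3' plastic pots of potting soil, covered with screened soil, and watered by sub-irrigation in greenhouse trays. Pots were seeded one day before spraying in a hood with a moving belt and fixed nozzle. Plants stayed in the greenhouse on sub-irrigation, and pre-emergence control was rated visually two weeks after treatment.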

[2] = tested on: Yellow foxtail grass (YF); assay: Pre-emergence herbicide test; format: in vivo, Setaria glauca; settings: Setaria, 336 h, 2 lb/acre, two weeks after treatment
Outline: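 Seeds surface-sown in potting soil one day before spraying; compounds applied pre-emergence at 8 or 4 lbs/acre in 38 gallons/acre spray. Pots held in greenhouse with sub-irrigation only. Injury or control rated visually two weeks after treatment.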

[3] = tested on: Johnson grass (JG); assay: Pre-emergence herbicide test; format: in vivo, Sorgum helepense; settings: Sorghum halepense, 336 h, two weeks after treatment
Outline: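 Pots seeded one day before spraying; compound applied pre-emergence at 8 lbs/acre (or 4 lbs/acre) in 38 gallons/acre spray volume. Sub-irrigated in greenhouse; injury/control rated visually two weeks after treatment.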

[4] = tested on: Barnyard grass (BG); assay: Pre-emergence herbicide test; format: in vivo; settings: Echinochloa crus-galli, 336 h, two weeks after treatment
Outline: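 Barnyard grass surface-seeded in potting soil and sprayed pre-emergence one day after seeding, at 8 or 4 lb compound/acre in 38 gal/acre spray volume. Pots kept in greenhouse with sub-irrigation only; injury or control rated visually two weeks after treatment.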

[5] = tested on: Amaranth pigweed (PW); assay: Pre-emergence herbicide test; format: in vivo, Amaranthus retroflexus; settings: 336 h, 2 lb/acre, two weeks after treatment
Outline: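 Pigweed was surface-seeded in potted soil one day before spraying at 8 lbs compound per acre, or 4 lbs/acre, in 38 gallons per acre. Pots were kept in the greenhouse with sub-irrigation only; injury or control was rated visually two weeks after treatment.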

[6] = tested on: Turnip (TP); assay: Pre-emergence herbicide test; format: in vivo, Brassica sp.; settings: Brassica rapa, pre-emergence, 336 h, two weeks after treatment
Outline: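 Turnip (Brassica sp.) seeds were surface sown in 3' plastic pots of potting soil, covered with a thin layer of screened soil, and sub-irrigated in greenhouse trays. Pots were seeded one day ahead of treatment, sprayed pre-emergence under a hood with a fixed nozzle and moving belt, then kept in the greenhouse.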

[7] = tested on: Cotton (CT); assay: Pre-emergence herbicide test; format: in vivo, Gossypium hirsutum var. DPL smooth leaf; settings: Gossypium hirsutum, 336 h, two weeks after treatment
Outline: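 Crop and weed species seeded one day before treatment, then sprayed pre-emergence at 8 lbs actual compound per acre (also 4 lbs/acre formulations) in 38 gallons per acre. Pots kept in greenhouse with sub-irrigation only; injury or control visually rated two weeks after treatment.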

[8] = tested on: Corn (CN); assay: Pre-emergence herbicide test; format: in vivo; settings: Zea mays, 336 h, two weeks after treatment
Outline: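 Four corn seeds per pot, sown at seed-diameter depth one day before spraying, got soil surface treatment at 8 lbs/acre (4 lbs/acre formulations also prepared) in 38 gallons/acre. Pots were greenhouse-held with sub-irrigation only. Injury or control was scored visually two weeks after treatment.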

[9] = tested on: Bean (BN); assay: Pre-emergence herbicide test; format: in vivo, Phaseolus vulgaris var. Black Valentine; settings: Phaseolus vulgaris, 336 h, two weeks after treatment
Outline: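 Black Valentine bean was seeded in potting soil one day before spraying. Compound was applied pre-emergence at 8 lbs/acre (also 4 lbs/acre) in 38 gallons per acre. Plants were sub-irrigated and injury or control was rated visually after two weeks.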

[10] = tested on: Crabgrass (CG); assay: Post-emergence herbicide test; format: in vivo, Digitaria sanquinalis; settings: Digitaria sanguinalis, post-emergence, 336 h, two weeks after treatment
Outline: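 Crabgrass (Digitaria sanquinalis) was surface seeded individually in 3' plastic pots of potting soil, covered with screened soil, and watered by sub-irrigation in greenhouse trays. Planting was staggered so seedlings reached the target stage together. Post-emergence sprays were applied in a hood with a removable belt and fixed nozzle, and control was visually rated two weeks after treatment.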

[11] = tested on: Yellow foxtail grass (YF); assay: Post-emergence herbicide test; format: in vivo, Setaria glauca; settings: Setaria, 336 h, 2 lb/acre, two weeks after treatment
Outline: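 Potted seedlings grown in greenhouse, planting staggered to reach the target stage together, then sprayed post-emergence at 8 lbs actual compound/acre in 38 gallons/acre (4 lbs/acre formulations also prepared). Sub-irrigated afterwards. Injury or control rated visually two weeks after treatment.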

[12] = tested on: Johnson grass (JG); assay: Post-emergence herbicide test; format: in vivo, Sorgum helepense; settings: Sorghum halepense, 336 h, two weeks after treatment
Outline: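 Greenhouse pot-grown seedlings sprayed post-emergence at 8 lbs compound per acre (some at 4 lbs/acre) in 38 gallons per acre spray volume. Sub-irrigated thereafter. Injury/control rated visually two weeks after treatment.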

[13] = tested on: Barnyard grass (BG); assay: Post-emergence herbicide test; format: in vivo; settings: Echinochloa crus-galli, 336 h, 2 lb/acre, two weeks after treatment
Outline: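 Greenhouse pot-grown barnyard grass seedlings sprayed post-emergence at 8 lbs active compound per acre (some at 4 lbs/acre) in 38 gallons per acre, then sub-irrigated. Injury or control rated visually two weeks after treatment.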

[14] = tested on: Amaranth pigweed (PW); assay: Post-emergence herbicide test; format: in vivo, Amaranthus retroflexus; settings: 336 h, 2 lb/acre, two weeks after treatment
Outline: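 Pot-grown pigweed was sprayed post-emergence at the 1–2 true-leaf stage with compound at rates equivalent to 8 lbs per acre (formulations also prepared for 4 lbs/acre) in 38 gallons per acre, using a hood with fixed nozzle. Plants were sub-irrigated in the greenhouse, and injury or control was rated visually two weeks after treatment.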

[15] = tested on: Turnip (TP); assay: Post-emergence herbicide test; format: in vivo, Brassica sp.; settings: Brassica rapa, post-emergence, 336 h, two weeks after treatment
Outline: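 A greenhouse post-emergence herbicide test on turnip. Seeds were sown on the surface of potting soil in 3' plastic pots, lightly covered with screened soil and watered from below. Planting was timed so seedlings had 1 or 2 true leaves above the cotyledons at spraying, done in a hood with a fixed nozzle. Control or injury was scored by eye after two weeks.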

[16] = tested on: Cotton (CT); assay: Post-emergence herbicide test; format: in vivo, Gossypium hirsutum var. DPL smooth leaf; settings: Gossypium hirsutum, post-emergence, 336 h, two weeks after treatment
Outline: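 Cotton (Gossypium hirsutum var. DPL smooth leaf) was grown in 3' plastic pots of potting soil, four seeds per pot, planted at a depth equal to the seed diameter and watered by sub-irrigation. At the stage of expanded cotyledons with the first true leaf 1' long, plants were sprayed post-emergence in a hood with a fixed nozzle over a moving belt. Percent control was rated visually two weeks later.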

[17] = tested on: Corn (CN); assay: Post-emergence herbicide test; format: in vivo; settings: Zea mays, 336 h, two weeks after treatment
Outline: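 Greenhouse seedlings grown in potting soil and sprayed post-emergence at 8 lbs compound/acre (formulations also made for 4 lbs/acre) in 38 gallons/acre spray volume. Watering by sub-irrigation only. Injury or control rated visually two weeks after treatment.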

[18] = tested on: Bean (BN); assay: Post-emergence herbicide test; format: in vivo, Phaseolus vulgaris var. Black Valentine; settings: Phaseolus vulgaris, post-emergence, 336 h, two weeks after treatment
Outline: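 Snapbean (Phaseolus vulgaris var. Black Valentine) was tested post-emergence. Four seeds were sown in 3' plastic pots of potting soil at a depth equal to the seed diameter, then sub-irrigated in greenhouse trays. Planting dates were staggered so plants were sprayed once primary leaves had expanded, with the growing point at the primary leaf nodes.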

[19] = Acute oral toxicity in rats; settings: rat, in vivo

CNC(=O)Nc1nnc(C(C)(C)C)s1 [Example 86]
2700 mg/kg: LD50 [19]
30%: pest or weed control at 2241.7 g/ha ([9]; 2 lb/acre)
50%: pest or weed control at 8966.8 g/ha ([3]; 8 lb/acre) | pest or weed control at 8966.8 g/ha ([7]; 8 lb/acre) | pest or weed control ([10]; 2 lb/acre) | pest or weed control at 2241.7 g/ha [13]
90%: pest or weed control ([1]; 2 lb/acre) | pest or weed control at 2241.7 g/ha [2]
80%: pest or weed control at 8966.8 g/ha ([4]; 8 lb/acre) | pest or weed control at 8966.8 g/ha ([10]; 8 lb/acre) | pest or weed control ([12]; 2 lb/acre)
40%: pest or weed control ([17]; 2 lb/acre)
10%: pest or weed control at 2241.7 g/ha ([7]; 2 lb/acre) | pest or weed control at 2241.7 g/ha ([8]; 2 lb/acre)
60%: pest or weed control at 2241.7 g/ha ([3]; 2 lb/acre) | pest or weed control at 2241.7 g/ha ([4]; 2 lb/acre) | pest or weed control at 8966.8 g/ha ([8]; 8 lb/acre)
100%: pest or weed control at 8966.8 g/ha ([1]; 8 lb/acre) | pest or weed control at 2241.7 g/ha [5] | pest or weed control at 2241.7 g/ha ([6]; 2 lb/acre) | pest or weed control at 8966.8 g/ha ([6]; 8 lb/acre) | pest or weed control at 8966.8 g/ha ([9]; 8 lb/acre) | pest or weed control at 8966.8 g/ha ([12]; 8 lb/acre) | pest or weed control at 2241.7 g/ha [14] | pest or weed control at 2241.7 g/ha ([15]; 2 lb/acre) | pest or weed control at 8966.8 g/ha ([15]; 8 lb/acre) | pest or weed control at 2241.7 g/ha ([16]; 2 lb/acre) | pest or weed control at 8966.8 g/ha ([16]; 8 lb/acre) | pest or weed control at 8966.8 g/ha ([17]; 8 lb/acre) | pest or weed control at 2241.7 g/ha ([18]; 2 lb/acre) | pest or weed control at 8966.8 g/ha ([18]; 8 lb/acre)
70%: pest or weed control [11]
